Results published in patent publication US9321809B2, “Macrocyclic compounds for suppressing replication of hepatitis C virus” (Ginkgo Pharma Co., Ltd., priority 2012, dated 2016).

Tested on: HCV replicon-containing huh-7 cells (replicon 1b)
Assay: HCV Replicon Assay (luciferase readout)
Format: cell-based
Conditions: Hepatitis C virus; HCV replicon 1b in huh-7 cells, 48 h incubation, 1% DMSO, luciferase signal; read-out: EC50 (EC 50 on replicon 1b)
Method: Compounds of formuala (I) are tested for the ability to inhibit viral replication of the Hepatitis C viruses by the following in vitro assays.
DMEM (Life Technologies #41965-039) was supplemented with 10% FBS, 2 mM L-glutamine (Life Technologies #25030-024), penicillin (100 units/ml)/streptomycin (100 micrograms/ml) (Life Technologies #15140-114), 1× non-essential amino acids (Life Technologies #11140-035).
Complete media was prepared by mixing FBS, DMEM media with Geneticin (G418). The compete media was preincubated at 37° C. in a CO2 incubator. Then, HCV replicon-containing huh-7 cells (V. Lohmann et. al. Science, 285, (1999)110-113) was taken out from 37° C. incubator. The residual medium was absorbed, and the cells were washed with PBS. After washing fluid was removed, 1 ml 0.25% trypsin/0.02% EDTA solution. The cells were washed by the above trypsin/EDTA solution to make sure that each cell was cleaned. After the trypsin/EDTA solution was absorbed, the mixture was incubated at 37° C. in a CO2 incubator for 3-5 minutes. Morphological changes were observed by inverted microscope, till the cells were detached from the wall of container completely.
3 ml of complete media was added to make the cells to suspend. The cells are counted with hematometer. Appropriate volumes of the complete media was added to adjust the cell density to 100,000/ml. Cells were plated with 100 μl of suspension at 10,000/well of 96 well plate. Plates were placed into 37° C. 5% CO2 incubator for 24 h.
Preparation of Drug Solution:
Drugs were diluted under aseptic conditions.
Stock solutions may be prepared before the assay, which means that the test compounds are dissolved in 100% DMSO to afford a final concentration of 2 mM. Before the 96 well culture was completed, the stock solution was diluted with culter media to 100 fold of the final concentration (100× solution).
96-well plates were taken out from 37° C. CO2 incubator and morphological changes were observed by inverted microscope. In a ventilator, 1 μl of 100× drug solution was added to wells of 96 well plate until the final concentration of DMSO in the mixture is 1%. The plates were incubated at 37° C. in a CO2 environment for 48 h. 30 μl of Stead-G1® Luciferase Assay System (bought from Promega) was added to each well of 96 well plates and each plate is shaken in a plate shaker for 5 minutes to ensure cells cleavaged completely. The fluorescence signal was quantitated in a Perkin-Elmer plate reader (Envision) and integral time was setted to be 2 second. The following data were achieved after recording and analyzing the data.

Question: With C=C[C@@H]1C[C@]1(NC(=O)[C@@H]1C[C@@H]2CN1C(=O)[C@H](C(C)(C)C)NC(=O)[C@@H](N)COC/C=C/c1cccc3c1CN(C3)C(=O)O2)C(=O)NS(=O)(=O)C1CC1 [Compound IIa-2, (1R,12E,17S,20S,23S)-17-amino-20-tert-butyl-N-[(1R,2S)-1-[(cyclopropanesulfonyl)carbamoyl]-2-ethenylcyclopropyl]-3,18,21-trioxo-2,15-dioxa-4,19,22-triazatetracyclo[20.2.1.1^4,7.0^6,11]hexacosa-6,8,10,12-tetraene-23-carboxamide] as the molecule, how does the EC50 read?
Answer: 10 to 50 nM

Question: How did the EC50 turn out when CC[C@@H]1C[C@]1(NC(=O)[C@@H]1C[C@@H]2CN1C(=O)[C@H](C1CCCCC1)NC(=O)[C@@H](NC(=O)OC(C)(C)C)COC/C=C/c1cccc3c1CN(C3)C(=O)O2)C(=O)NS(=O)(=O)C1CC1 [Compound IIa-19, tert-butyl N-[(1R,12E,17S,20S,23S)-20-cyclohexyl-23-{[(1R,2R)-1-[(cyclopropanesulfonyl)carbamoyl]-2-ethylcyclopropyl]carbamoyl}-3,18,21-trioxo-2,15-dioxa-4,19,22-triazatetracyclo[20.2.1.1^4,7.0^6,11]hexacosa-6,8,10,12-tetraen-17-yl]carbamate] was run?
Answer: < 10 nM

Question: Which EC50 does the source give for C=C[C@@H]1C[C@]1(NC(=O)[C@@H]1C[C@@H]2CN1C(=O)[C@H](C(C)(C)C)NC(=O)[C@@H](NC(=O)c1cnccn1)COC/C=C/c1cccc3c1CN(C3)C(=O)O2)C(=O)NS(=O)(=O)C1CC1 [Compound IIa-5, (1R,12E,17S,20S,23S)-20-tert-butyl-23-N-[(1R,2S)-1-[(cyclopropanesulfonyl)carbamoyl]-2-ethenylcyclopropyl]-3,18,21-trioxo-17-C-pyrazine-2-2,15-dioxa-4,19,22-triazatetracyclo[20.2.1.1^4,7.0^6,11]hexacosa-6,8,10,12-tetraene-17,23-diamido] here?
Answer: 50 to 500 nM

Question: Which EC50 does the source give for C=C[C@@H]1C[C@]1(NC(=O)[C@@H]1C[C@@H]2CN1C(=O)[C@H](C(C)(C)C)NC(=O)[C@@H](NC(=O)OC(C)(C)C)COCCCc1cc3c(nccc3cc1OC)O2)C(=O)NS(=O)(=O)C1CC1 [Compound IIb-2, tert-butyl N-[(3R,5S,8S,11S)-8-tert-butyl-5-{[(1R,2S)-1-[(cyclopropanesulfonyl)carbamoyl]-2-ethenylcyclopropyl]carbamoyl}-18-methoxy-7,10-dioxo-2,13-dioxa-6,9,23-triazatetracyclo[15.6.2.1^3,6.0^20,24]hexacosa-1(23),17(25),18,20(24),21-pentaen-11-yl]carbamate] here?
Answer: < 10 nM

Question: Which EC50 does the source give for C=C[C@@H]1C[C@]1(NC(=O)[C@@H]1C[C@@H]2CN1C(=O)[C@H](C(C)(C)C)NC(=O)[C@@H](NC(=O)OC(C)(C)C)COCCCc1cccc3c1CN(C3)C(=O)O2)C(=O)NS(=O)(=O)C1CC1 [Compound IIa-13, tert-butyl N-[(1R,17S,20S,23S)-20-tert-butyl-23-{[(1R,2S)-1-[(cyclopropanesulfonyl)carbamoyl]-2-ethenylcyclopropyl]carbamoyl}-3,18,21-trioxo-2,15-dioxa-4,19,22-triazatetracyclo[20.2.1.1^4,7.0^6,11]hexacosa-6,8,10-trien-17-yl]carbamate] here?
Answer: 10 to 50 nM

Question: How did the EC50 turn out when C=C[C@@H]1C[C@]1(NC(=O)[C@@H]1C[C@@H]2CN1C(=O)[C@H](C(C)(C)C)NC(=O)[C@@H](NC(=O)OC1CCCC1)COC/C=C/c1cccc3c1CN(C3)C(=O)O2)C(=O)NS(=O)(=O)C1CC1 [Compound IIa-11, cyclopentyl N-[(1R,12E,17S,20S,23S)-20-tert-butyl-23-{[(1R,2S)-1-[(cyclopropanesulfonyl)carbamoyl]-2-ethenylcyclopropyl]carbamoyl}-3,18,21-trioxo-2,15-dioxa-4,19,22-triazatetracyclo[20.2.1.1^4,7.0^6,11]hexacosa-6,8,10,12-tetraen-17-yl]carbamate] was run?
Answer: < 10 nM

Question: With C=C[C@@H]1C[C@]1(NC(=O)[C@@H]1C[C@@H]2CN1C(=O)[C@H](C(C)(C)C)NC(=O)[C@@H](NC(=O)OC(C)(C)C)CSC/C=C/c1cccc3c1CN(C3)C(=O)O2)C(=O)NS(=O)(=O)C1CC1 [Compound IIa-21, tert-butyl N-[(1R,12E,17R,20S,23S)-20-tert-butyl-23-{[(1R,2S)-1-[(cyclopropanesulfonyl)carbamoyl]-2-ethenylcyclopropyl]carbamoyl}-3,18,21-trioxo-2-oxa-15-thia-4,19,22-triazatetracyclo[20.2.1.1^4,7.0^6,11]hexacosa-6,8,10,12-tetraen-17-yl]carbamate] as the molecule, how does the EC50 read?
Answer: 10 to 50 nM

Question: C=C[C@@H]1C[C@]1(NC(=O)[C@@H]1C[C@@H]2CN1C(=O)[C@H](C1CCCC1)NC(=O)[C@@H](NC(=O)OC(C)(C)C)COC/C=C/c1cccc3c1CN(C3)C(=O)O2)C(=O)NS(=O)(=O)C1CC1 [Compound IIa-22, tert-butyl N-[(1R,12E,17S,20S,23S)-20-cyclopentyl-23-{[(1R,2S)-1-[(cyclopropanesulfonyl)carbamoyl]-2-ethenylcyclopropyl]carbamoyl}-3,18,21-trioxo-2,15-dioxa-4,19,22-triazatetracyclo[20.2.1.1^4,7.0^6,11]hexacosa-6,8,10,12-tetraen-17-yl]carbamate] was tested. Which EC50 did it give?
Answer: < 10 nM

Question: How did the EC50 turn out when C=C[C@@H]1C[C@]1(NC(=O)[C@@H]1C[C@@H]2CN1C(=O)[C@H](C(C)(C)C)NC(=O)[C@@H](NS(C)(=O)=O)COC/C=C/c1cccc3c1CN(C3)C(=O)O2)C(=O)NS(=O)(=O)C1CC1 [Compound IIa-8, (1R,12E,17S,20S,23S)-20-tert-butyl-N-[(1R,2S)-1-[(cyclopropanesulfonyl)carbamoyl]-2-ethenylcyclopropyl]-17-methanesulfonamido-3,18,21-trioxo-2,15-dioxa-4,19,22-triazatetracyclo[20.2.1.1^4,7.0^6,11]hexacosa-6,8,10,12-tetraene-23-carboxamide] was run?
Answer: 10 to 50 nM

Question: CC[C@@H]1C[C@]1(NC(=O)[C@@H]1C[C@@H]2CN1C(=O)[C@H](C(C)(C)C)NC(=O)[C@@H](NC(=O)OC(C)(C)C)COC/C=C/c1cccc3c1CN(C3)C(=O)O2)C(=O)NS(=O)(=O)C1CC1 [Compound IIa-15, tert-butyl N-[(1R,12E,17S,20S,23S)-20-tert-butyl-23-{[(1R,2R)-1-[(cyclopropanesulfonyl)carbamoyl]-2-ethylcyclopropyl]carbamoyl}-3,18,21-trioxo-2,15-dioxa-4,19,22-triazatetracyclo[20.2.1.1^4,7.0^6,11]hexacosa-6,8,10,12-tetraen-17-yl]carbamate] was tested. Which EC50 did it give?
Answer: < 10 nM

Question: C=C[C@@H]1C[C@]1(NC(=O)[C@@H]1C[C@@H]2CN1C(=O)[C@H](C(C)(C)C)NC(=O)[C@H](N)COC/C=C/c1cccc3c1CN(C3)C(=O)O2)C(=O)NS(=O)(=O)C1CC1 [Compound IIa-4, (1R,12E,17R,20S,23S)-17-amino-20-tert-butyl-N-[(1R,2S)-1-[(cyclopropanesulfonyl)carbamoyl]-2-ethenylcyclopropyl]-3,18,21-trioxo-2,15-dioxa-4,19,22-triazatetracyclo[20.2.1.1^4,7.0^6,11]hexacosa-6,8,10,12-tetraene-23-carboxamide] was tested. Which EC50 did it give?
Answer: 500 to 20000 nM

Question: For CC[C@@H]1C[C@]1(NC(=O)[C@@H]1C[C@@H]2CN1C(=O)[C@H](C(C)(C)C)NC(=O)[C@@H](NC(=O)OC(C)(C)C)COCCCc1cccc3c1CN(C3)C(=O)O2)C(=O)NS(=O)(=O)C1CC1 [Compound IIa-14, tert-butyl N-[(1R,17S,20S,23S)-20-tert-butyl-23-{[(1R,2R)-1-[(cyclopropanesulfonyl)carbamoyl]-2-ethylcyclopropyl]carbamoyl}-3,18,21-trioxo-2,15-dioxa-4,19,22-triazatetracyclo[20.2.1.1^4,7.0^6,11]hexacosa-6,8,10-trien-17-yl]carbamate], which EC50 is on record?
Answer: 50 to 500 nM

Question: C=C[C@@H]1C[C@]1(NC(=O)[C@@H]1C[C@@H]2CN1C(=O)[C@H](C(C)(C)C)NC(=O)[C@H](NC(=O)c1cnccn1)COC/C=C/c1cccc3c1CN(C3)C(=O)O2)C(=O)NS(=O)(=O)C1CC1 [Compound IIa-6, (1R,12E,17R,20S,23S)-20-tert-butyl-23-N-[(1R,2S)-1-[(cyclopropanesulfonyl)carbamoyl]-2-ethenylcyclopropyl]-3,18,21-trioxo-17-C-pyrazine-2-2,15-dioxa-4,19,22-triazatetracyclo[20.2.1.1^4,7.0^6,11]hexacosa-6,8,10,12-tetraene-17,23-diamido] was tested. Which EC50 did it give?
Answer: 50 to 500 nM
